Assay results taken from patent US20160362416A1, “ANTIVIRAL COMPOUNDS” (Gilead Sciences, Inc., priority 2012, published 2016).

Experiments:
[1] = tested on: stable HCV 1b RLuc replicon cells (genotype 1b Con1 replicon); experiment: HCV genotype 1b RLuc replicon reporter assay; assay type: cell-based; conditions: Hepatitis C virus; stable genotype 1b Con1 RLuc replicon cells, 72 hours
Procedure, shortened: (§1)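 EC50 derived by non-linear regression of Renilla luciferase signal measured in lysates 72 h after adding 3-fold serial compound dilutions. Replicons: stable genotype 1b Con1 cells; transient Huh-Lunet transfections of NS5A chimeras—4a ED43 or 3a S52 in Con1, 2b MD2b-1 (M31) in JFH-1.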

[2] = tested on: NS5A chimeric genotype 2a JFH-1 replicon with genotype 2b MD2b-1 strain NS5A gene (M31); experiment: HCV genotype 2b NS5A chimeric replicon assay, stable (s); assay type: cell-based; conditions: Hepatitis C virus, 72 h, read-out: 2b (s) (nM)
[3] = tested on: NS5A chimeric genotype 1b Con1 replicon with genotype 3a S52 strain NS5A gene; experiment: HCV genotype 3a NS5A chimeric replicon assay; assay type: cell-based; conditions: Hepatitis C virus, 72 h, read-out: 3a (nM)
Procedure, shortened: as §1

[4] = tested on: NS5A chimeric genotype 1b Con1 replicon with genotype 4a ED43 strain NS5A gene; experiment: HCV genotype 4a NS5A chimeric replicon assay; assay type: cell-based; conditions: Hepatitis C virus, 72 h, read-out: 4a (s) (nM)
[5] = tested on: Q30R in genotype 1a NS5A replicon; experiment: Resistance mutant replicon assay, genotype 1a NS5A Q30R; assay type: cell-based, HCV; conditions: Hepatitis C virus, read-out: 1a Q30R (nM)
Procedure: Evaluation of cell-based anti-HCV activity: Antiviral potency (EC50) was determined using a Renilla luciferase (RLuc)-based HCV replicon reporter assay. To perform the assay for genotype 1 and 2a JFH-1, stable HCV 1a RLuc replicon cells (harboring a dicistronic genotype 1a H77 replicon that encodes a RLuc reporter), stable HCV lb RLuc replicon cells (harboring a dicistronic genotype 1b Conl replicon that encodes a RLuc reporter), or stable HCV 2a JFH-1 Rluc replicon cells (harboring a dicistronic genotype 2a JFH-1 replicon that encodes a RLuc reporter; with L31 present in NS5A) were dispensed into 384-well plates for EC50 assays. To perform the assay for genotype 2a (with M31 present in NS5A) or 2b, NS5A chimeric genotype 2a JFH-1 replicons that encodes a RLuc-Neo reporter and either genotype 2a J6 strain NS5A gene or genotype 2b MD2b-1 strain NS5A gene (both with M31 present) respectively, were either transiently transfected (t) into Huh-Lunet cells or were established as stably replicating replicon cells (s) is provided. Either cells were dispensed into 384-well plates for EC50 assays. To perform the assay for genotype 3 and 4, NS5A chimeric genotype 1b Conl replicons that encodes a Pi-RLuc reporter and either genotype 3a S52 strain NS5A gene or genotype 4a ED43 strain NS5A gene respectively, were transiently transfected (t) into Huh-Lunet cells, which were subsequently dispensed into 384-well plates. Compounds were dissolved in DMSO at a concentration of 10 mM and diluted in DMSO either manually or using an automated pipeting instrument. Serially 3-fold diluted compounds were either manually mixed with cell culture media and added to the seeded cells or directly added to the cells using an automated instrument. DMSO was used as a negative (solvent; no inhibition) control, and the protease inhibitor ITMN-191 was included at a concentration >100×EC50 as a positive control. 72 hours later, cells were lysed and Renilla luciferase activity quantified as recommended by the manufacturer (Promega-Madison, Wis.). Non-linear regression was performed to calculate EC50 values.
To determine the antiviral potency (EC50) against resistance mutants, resistance mutations, including M28T, Q30R, Q30H, Q30E, L31M, Y93C, Y93H, and Y93N in genotype 1a NS5A, Y93H and L31V/Y93H in genotype 1b NS5A, and Y93H for in genotype 3a NS5A, were introduced individually into either 1a Pi-Rluc or 1b Pi-Rluc replicons by site directed mutagenesis. Replicon RNA of each resistant mutant was transiently transfected into Huh-7-derived cured-51 cells and antiviral potency was determined on these transfected cells as described above.

SMILES | EC50 [1] | EC50 [2] | EC50 [3] | EC50 [4] | EC50 [5]
CC[C@H](C)[C@H](NC(=O)OC)C(=O)N1[C@@H](C)CC[C@H]1c1ncc(-c2ccc3c(c2)COc2cc4c(ccc5nc([C@@H]6CC[C@H](C)N6C(=O)[C@@H](NC(=O)OC)C6C[C@@H](C)O[C@H](C)C6)[nH]c54)cc2-3)[nH]1 (stereo partly drawn) [Example AA, Methyl {(2S,3S)-1-[(2S,5S)-2-(5-{2-[(2S,5S)-1-{(2S)-2-[(2R,6R)-2,6-dimethyltetrahydro-2H-pyran-4-yl]-2-[(methoxycarbonyl)amino]acetyl}-5-methylpyrrolidin-2-yl]-1,11-dihydroisochromeno[4′,3′:6,7]naphtho[1,2-d]imidazol-9-yl}-1H-imidazol-2-yl)-5-methylpyrrolidin-1-yl]-3-methyl-1-oxopentan-2-yl}carbamate] | 0.017 nM | 0.029 nM | 0.014 nM | 0.008 nM | –
COC(=O)N[C@H](C(=O)N1[C@@H](C)CC[C@H]1c1nc2ccc3cc4c(cc3c2[nH]1)OCc1cc(-c2cnc([C@@H]3CC[C@H](C)N3C(=O)[C@@H](NC(=O)OC)C3C[C@@H](C)O[C@H](C)C3)[nH]2)ccc1-4)C(C)C (some centres unmarked) [Example AS] | 0.045 nM | 0.064 nM | 0.051 nM | 0.024 nM | –
CC[C@H](C)[C@H](NC(=O)OC)C(=O)N1[C@@H](C)CC[C@H]1c1nc2ccc3cc4c(cc3c2[nH]1)OCc1cc(-c2cnc([C@@H]3CC[C@H](C)N3C(=O)[C@@H](NC(=O)OC)C3CCOCC3)[nH]2)ccc1-4 [Comp 12, reference compound] | 0.022 nM | 0.07 nM | 0.026 nM | 17.7 nM | 1.28 nM
COC(=O)N[C@H](C(=O)N1[C@@H](C)CC[C@H]1c1ncc(-c2ccc3c(c2)COc2cc4c(ccc5nc([C@@H]6CC[C@H](C)N6C(=O)[C@@H](NC(=O)OC)[C@H]6C[C@@H](C)O[C@@H](C)C6)[nH]c54)cc2-3)[nH]1)C(C)C [Example AM, Methyl {(2S)-1-[(2S,5S)-2-(5-{2-[(2S,5S)-1-{(2S)-2-[(2R,6S)-2,6-dimethyltetrahydro-2H-pyran-4-yl]-2-[(methoxycarbonyl)amino]acetyl}-5-methylpyrrolidin-2-yl]-1,11-dihydroisochromeno[4′,3′:6,7]naphtho[1,2-d]imidazol-9-yl}-1H-imidazol-2-yl)-5-methylpyrrolidin-1-yl]-3-methyl-1-oxobutan-2-yl}carbamate] | 0.014 nM | 0.023 nM | 0.011 nM | 0.01 nM | –
COC(=O)N[C@H](C(=O)N1[C@@H](C)CC[C@H]1c1nc2ccc3cc4c(cc3c2[nH]1)OCc1cc(-c2cnc([C@@H]3CC[C@H](C)N3C(=O)[C@@H](NC(=O)OC)[C@H]3C[C@@H](C)O[C@@H](C)C3)[nH]2)ccc1-4)C(C)C [Example AO, Methyl {(2S)-1-[(2S,5S)-2-(9-{2-[(2S,5S)-1-{(2S)-2-[(2R,6S)-2,6-dimethyltetrahydro-2H-pyran-4-yl]-2-[(methoxycarbonyl)amino]acetyl}-5-methylpyrrolidin-2-yl]-1H-imidazol-5-yl}-1,11-dihydroisochromeno[4′,3′:6,7]naphtho[1,2-d]imidazol-2-yl)-5-methylpyrrolidin-1-yl]-3-methyl-1-oxobutan-2-yl}carbamate] | 0.015 nM | 0.045 nM | 0.021 nM | 0.018 nM | –
COC[C@H]1C[C@@H](c2ncc(-c3ccc4c(c3)COc3cc5c(ccc6nc([C@@H]7CC[C@H](C)N7C(=O)[C@@H](NC(=O)OC)C7C[C@@H](C)O[C@H](C)C7)[nH]c65)cc3-4)[nH]2)N(C(=O)[C@@H](NC(=O)OC)C2C[C@@H](C)O[C@H](C)C2)C1 (stereo partly drawn) [Example BH, Methyl {(1S)-1-[(2R,6R)-2,6-dimethyltetrahydro-2H-pyran-4-yl]-2-[(2S,5S)-2-(9-{2-[(2S,4S)-1-{(2S)-2-[(2R,6R)-2,6-dimethyltetrahydro-2H-pyran-4-yl]-2-[(methoxycarbonyl)amino]acetyl}-4-(methoxymethyl)pyrrolidin-2-yl]-1H-imidazol-5-yl}-1,11-dihydroisochromeno[4′,3′:6,7]naphtho[1,2-d]imidazol-2-yl)-5-methylpyrrolidin-1-yl]-2-oxoethyl}carbamate] | 0.118 nM | 0.027 nM | 0.056 nM | 0.024 nM | –
COC(=O)N[C@H](C(=O)N1[C@@H](C)CC[C@H]1c1ncc(-c2ccc3c(c2)COc2cc4c(ccc5nc([C@@H]6CC[C@H](C)N6C(=O)[C@@H](NC(=O)OC)C6C[C@@H](C)O[C@H](C)C6)[nH]c54)cc2-3)[nH]1)C1C[C@@H](C)O[C@H](C)C1 (stereo partly drawn) [Example AU, Methyl {(1S)-1-[(2R,6R)-2,6-dimethyltetrahydro-2H-pyran-4-yl]-2-[(2S,5S)-2-(5-{2-[(2S,5S)-1-{(2S)-2-[(2R,6R)-2,6-dimethyltetrahydro-2H-pyran-4-yl]-2-[(methoxycarbonyl)amino]acetyl}-5-methylpyrrolidin-2-yl]-1,11-dihydroisochromeno[4′,3′:6,7]naphtho[1,2-d]imidazol-9-yl}-1H-imidazol-2-yl)-5-methylpyrrolidin-1-yl]-2-oxoethyl}carbamate] | 0.039 nM | 0.023 nM | 0.029 nM | 0.017 nM | –
CC[C@H](C)[C@H](NC(=O)OC)C(=O)N1[C@@H](C)CC[C@H]1c1ncc(-c2ccc3c(c2)COc2cc4c(ccc5nc([C@@H]6CC[C@H](C)N6C(=O)[C@@H](NC(=O)OC)C6CCOCC6)[nH]c54)cc2-3)[nH]1 [Comp 4, reference compound] | 0.028 nM | 0.074 nM | 0.043 nM | 0.021 nM | –
CC[C@H]1CC[C@@H](c2nc3ccc4cc5c(cc4c3[nH]2)OCc2cc(-c3cnc([C@@H]4CC[C@H](C)N4C(=O)[C@@H](NC(=O)OC)C(C)C)[nH]3)ccc2-5)N1C(=O)[C@@H](NC(=O)OC)C1CCOCC1 [Comp 3, reference compound] | 0.026 nM | 0.095 nM | 0.065 nM | 0.014 nM | –
COC(=O)N[C@H](C(=O)N1[C@@H](C)CC[C@H]1c1ncc(-c2ccc3c(c2)COc2cc4c(ccc5nc([C@@H]6CC[C@H](C)N6C(=O)[C@@H](NC(=O)OC)C6CC(C)O[C@H](C)C6)[nH]c54)cc2-3)[nH]1)C(C)C (stereo in doubt) [Example AQ, Methyl {(2S)-1-[(2S,5S)-2-(5-{2-[(2S,5S)-1-{(2S)-2-[(2R,6R)-2,6-dimethyltetrahydro-2H-pyran-4-yl]-2-[(methoxycarbonyl)amino]acetyl}-5-methylpyrrolidin-2-yl]-1,11-dihydroisochromeno[4′,3′:6,7]naphtho[1,2-d]imidazol-9-yl}-1H-imidazol-2-yl)-5-methylpyrrolidin-1-yl]-3-methyl-1-oxobutan-2-yl}carbamate] | 0.029 nM | 0.032 nM | 0.017 nM | 0.012 nM | –
